From a compilation of properties of binary mixtures (doi:10.1524/zpch.2013.0326)

Test: xn = mol fraction of the nth substance listed
Settings: 101 kPa

c1ccccc1 + CCCCCCCC[n+]1ccc2ccccc2c1.O=S(=O)([N-]S(=O)(=O)C(F)(F)F)C(F)(F)F
x1 = 1
Settings	viscosity [mPa·s]
298.15 K	0.6
318.15 K	0.47
338.15 K	0.37
348.15 K	0.34

CCCCCCCC[n+]1ccc2ccccc2c1.O=S(=O)([N-]S(=O)(=O)C(F)(F)F)C(F)(F)F + Cc1ccccc1
viscosity [mPa·s]
Settings	298.15 K	308.15 K	318.15 K	328.15 K	338.15 K	348.15 K
x2 = 0	369	191	108.7	67.9	–	31.62
x2 = 0.0818	–	–	94.1	58.9	39.34	27.64
x2 = 0.1949	200	111.3	–	43.52	29.87	21.41
x2 = 0.2746	143.3	–	50.3	33.2	23.14	16.87
x2 = 0.3638	96.8	58.2	37.73	–	18.51	13.76
x2 = 0.4295	67.4	–	27.64	–	14.19	10.81
x2 = 0.4775	–	–	22.12	15.77	–	9
x2 = 0.4902	–	31.17	21.24	15.26	11.43	8.83
x2 = 0.5467	35.44	23.45	16.48	–	9.23	7.21
x2 = 0.6148	22.18	15.4	–	8.46	6.59	5.28
x2 = 0.7004	12.67	9.25	7.03	–	4.44	3.65
x2 = 0.7634	7.73	5.89	4.64	3.76	3.11	2.62
x2 = 0.8672	3.2	2.62	–	1.88	1.65	1.48

CCCCCCCC[n+]1ccc2ccccc2c1.O=S(=O)([N-]S(=O)(=O)C(F)(F)F)C(F)(F)F + c1ccsc1
viscosity [mPa·s]
Settings	298.15 K	308.15 K	318.15 K	328.15 K	338.15 K	348.15 K
x2 = 0	369	191	–	67.9	44.8	31.62
x2 = 0.0964	300	–	–	57.9	38.71	27.2
x2 = 0.1907	215	118	70.9	45.7	33.3	22.4
x2 = 0.2739	155.2	88.3	–	36.23	25.31	18.35
x2 = 0.3572	112.1	66.1	42.17	28.66	–	15.04
x2 = 0.4456	72.5	44.61	29.44	20.52	14.97	–
x2 = 0.542	–	–	19.21	13.96	10.53	8.22
x2 = 0.6385	23.26	–	11.79	8.96	6.98	5.57
x2 = 0.7244	12.82	9.45	7.2	5.63	4.53	3.73
x2 = 0.821	–	–	4.88	4.03	3.4	2.91
x2 = 0.8627	5.27	4.26	3.53	2.98	2.55	2.22
x2 = 0.9065	3.34	–	–	2.04	1.78	1.57
x2 = 0.935	2.38	2.01	1.73	1.51	1.34	1.25

c1ccncc1 + CCCCCCCC[n+]1ccc2ccccc2c1.O=S(=O)([N-]S(=O)(=O)C(F)(F)F)C(F)(F)F
x1 = 1
Settings	viscosity [mPa·s]
218.15 K	0.67
298.15 K	0.89
308.15 K	0.76
328.15 K	0.59
348.15 K	0.52

Cc1ccccc1 + CCCCCCCC[n+]1ccc2ccccc2c1.O=S(=O)([N-]S(=O)(=O)C(F)(F)F)C(F)(F)F
x1 = 1
Settings	viscosity [mPa·s]
298.15 K	0.56
318.15 K	0.45
328.15 K	0.4
338.15 K	0.37
348.15 K	0.33

CCCCCCCC[n+]1ccc2ccccc2c1.O=S(=O)([N-]S(=O)(=O)C(F)(F)F)C(F)(F)F + c1ccncc1
viscosity [mPa·s]
Settings	298.15 K	308.15 K	328.15 K	338.15 K	348.15 K
x2 = 0	369	191	–	44.8	31.62
x2 = 0.0945	292	–	57	–	–
x2 = 0.1869	205	113.6	44.5	30.56	21.19
x2 = 0.2762	141.5	81.4	34.07	23.96	17.53
x2 = 0.3675	89.1	53.9	24.08	17.44	13.12
x2 = 0.4584	56.5	35.87	17.33	12.94	10.01
x2 = 0.5383	42.09	27.64	14.12	–	8.48
x2 = 0.637	19.55	13.92	8.02	6.34	5.11
x2 = 0.7274	10.36	7.76	–	3.95	3.3
x2 = 0.8199	6.68	–	3.64	–	2.67
x2 = 0.9064	3.11	2.6	1.92	1.68	1.49

c1ccsc1 + CCCCCCCC[n+]1ccc2ccccc2c1.O=S(=O)([N-]S(=O)(=O)C(F)(F)F)C(F)(F)F
x1 = 1
Settings	viscosity [mPa·s]
298.15 K	0.62
308.15 K	0.54
318.15 K	0.48
328.15 K	0.42
338.15 K	0.38

CCCCCCCC[n+]1ccc2ccccc2c1.O=S(=O)([N-]S(=O)(=O)C(F)(F)F)C(F)(F)F + c1ccccc1
viscosity [mPa·s]
Settings	298.15 K	308.15 K	318.15 K	328.15 K	338.15 K	348.15 K
x2 = 0	–	191	–	67.9	44.8	31.62
x2 = 0.0912	301	158.8	92	57.6	38.53	27.1
x2 = 0.1505	249	134.2	79.2	–	34.07	24.21
x2 = 0.295	150.9	85.5	52.8	34.86	24.3	17.61
x2 = 0.332	133.1	76.4	–	–	22.32	–
x2 = 0.4679	–	–	26.93	18.76	13.7	10.41
x2 = 0.5663	37.49	24.56	–	12.25	9.21	7.15
x2 = 0.654	21.25	14.55	10.5	7.91	6.15	–
x2 = 0.673	–	7.96	6.05	–	–	3.15
x2 = 0.7443	–	4.55	3.6	2.94	2.46	2.11
x2 = 0.8143	2.78	2.28	1.92	1.66	–	1.34
x2 = 0.8961	0.96	0.83	0.74	0.65	0.59	–
